Patent US6747060B2, “Non-natural galanin receptor ligands” (Kemia, Inc., priority 2002, dated 2004)
“Also recorded” adds a separate entry of the source. Read-outs that look alike come from different tables or passages of the source. Non-standard residues stand in square brackets, D forms with d. Residues, ends and D or L forms follow the SMILES beside them. *: point of attachment. Fmoc = O=C(OCC1c2ccccc2-c2ccccc21)*; AMC = Cc1cc(=O)oc2cc(N*)ccc12; Cha = N[CH](CC1CCCCC1)C(=O)O

How the values were obtained:
human GalR1 = biological target: T1, human GalR1 (Homo sapiens, UniProt P47211); details: antagonists, literature reports; cited from earlier work
T1 sequence (P47211 1-349): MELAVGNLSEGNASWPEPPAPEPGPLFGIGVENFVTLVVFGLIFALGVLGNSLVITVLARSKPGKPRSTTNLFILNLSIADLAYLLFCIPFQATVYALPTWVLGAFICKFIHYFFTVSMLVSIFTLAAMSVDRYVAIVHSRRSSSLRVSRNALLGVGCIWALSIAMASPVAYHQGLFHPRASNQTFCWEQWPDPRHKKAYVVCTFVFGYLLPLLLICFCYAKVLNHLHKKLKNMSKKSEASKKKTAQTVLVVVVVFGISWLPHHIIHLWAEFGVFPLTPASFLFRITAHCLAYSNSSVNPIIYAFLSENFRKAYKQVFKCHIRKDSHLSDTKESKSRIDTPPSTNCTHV

adenylate cyclase = adenylate cyclase assay (basal and forskolin-stimulated cAMP production) in membranes from rat ventral hippocampi; format: biochemical
Procedure: (§1) The mixtures of ligands and individual compounds were screened to displace [^125I]-galanin in equilibrium binding assay using membrane preparations from rat hippocampi, rich in galanin binding sites as described in detail previously^11. Effect of galnon on basal and forskolin-stimulated cAMP production were performed essentially as described by Valkna et al.^12 in membranes from rat ventral hippocampi.

[1] = test system: self sustaining status epilepticus; experiment: self sustaining status epilepticus (SSSE) induced by PPS in rats; format: in vivo
Procedure: The effects of intrahippocampal galnon administration was evaluated in rats. SSSE consisted of recurrent limbic seizures of varying intensity (stages 1-5), which lasted for 12-18 h after PPS was discontinued. Behavioral seizures were accompanied by high-frequency (13+Hz) and amplitude (1+mV) discharges with the duration of individual events between 30 s and 3 min. Between the seizures, ictal spikes with the amplitude of 0.8 mV and more and frequency of 3 Hz and less were continuously generated (spike frequency of 3 Hz and more was recognized as a seizure)^5.

galanin receptors = experiment: [125I]-galanin displacement, equilibrium binding in rat ventral hippocampal membranes; details: membranes from rat ventral hippocampus
Procedure: as §1

PTZ-induced seizures = PTZ-induced seizures in mice
Procedure: The experiments were performed on C57B1 male mice (weight 20-30 g). Animals to be treated with galanin, or M35 were anaesthetized with ketamine (100 mg/kg i.p.) and xylazine (15 mg/kg i.p.) and stereotaxically implanted i.c.v. with guide cannulae (0.6 mm internal diameter). Postoperative recovery was 3-5 days. Galanin, or M35 were injected into the lateral brain ventricle of freely moving mice by means of Hamilton microsyringe in the amount 0.5 nmol, in 0.5 μl, at a rate […]. Control animals were treated with saline.
Galnon was dissolved in the 50% DMSO in saline and administered i.p. in a dose of 2 mg/kg […] prior to PTZ injection (when the effect of galnon alone was studied) or […] after M35 injection (in co-administration studies). Control animals were treated with 50% DM50 in saline.
Seizures were induced by i.p. injection of PTZ (Research Biochemicals, Natick, Massachusetts) in a dose of 40 mg/kg (when studying the effects of galanin only, or galnon only) or 30 mg/kg (when studying the effect of M35 and galnon+M35). The animals were placed in individual Plexiglas cages and videotaped for 15 min after PTZ administration. Seizures were analyzed off-line by a unbiased investigator and quantified using the following scale: 0: no motor seizures; 1: staring, mouth, or facial movements; 2: head nodding or isolated twitches; 3: unilateral bilateral forelimb clonus; 4: rearing; 5: rearing and falling; 6: tonic extension of hind limbs or death. The latency of each behavioral seizure type and the highest seizure score were recorded. […] Statistical methods used: t-test (latency) and Mann-Whitney (seizure score).

galanin binding sites = experiment: autoradiographic [125I]-galanin binding assay on rat spinal cord sections; details: rat spinal cord sections L4, L5; galnon at 1, 3 and 5 μM
Procedure: Rats were decapitated, the spinal cord lumbar segments L4 and L5 were dissected out, rapidly frozen, cut in a cryostat and processed for the autoradiographic ligand binding assay of Young and Kuhar^13, as described previously^14. Galnon was added at 1, 3 and 5 μM concentration. The sections were processed in a BAS3000 Bio-Imagine Analyzer (Fuji) and quantified and then exposed to Hyperfilm-Max X-ray film (Arnersham Pharmacia Biotech).

[2] = equimolar galnon into hippocampus before M35 5 nmol, 7 min PPS
[3] = galnon 1 nmol, control rats injected with scrambled PNA

Molecule	IC50 (human GalR1) [nM]	EC50 (adenylate cyclase; basal, read-out: EC50, M of inhibition of adenylate cyclase activity (basal)) [µM]	EC50 (adenylate cyclase; forskolin stimulated, read-out: EC50, M of inhibition of adenylate cyclase activity (forskolin stimulated)) [µM]	anticonvulsant effect in the presence of GalR antagonist M35 ([1]; M35 0.5 nmol pretreatment)	duration of SSSE [1, 2] [min]	total seizure time [1, 2] [min]	effect on self-sustaining seizures ([1]; galnon 1 nmol, PNA1-pretreated animals (GalR1 down-regulated))	reduction of duration of SSSE [1, 3] [fold]	reduction of total seizure time [1, 3] [fold]	effect on SSSE ([1]; intrahippocampal injection 10 min after the end of PPS)	SSSE duration ([1]; intrahippocampal, maximal dose 5 nmol, 30 min PPS) [min]	Ki (galanin receptors) [µM]	effect on seizure-facilitating effect of M35 (PTZ-induced seizures; M35 i.c.v. co-administered with galnon i.p., PTZ 30 mg/kg)	maximal seizure score (PTZ-induced seizures; PTZ 40 mg/kg i.p., 2 mg/kg i.p. 15 min prior to PTZ, scale 0-6)	anticonvulsant effect compared with galanin i.c.v. 0.5 nmol (PTZ-induced seizures; PTZ 40 mg/kg, galnon 2 mg/kg i.p.)	behavioral side effects (PTZ-induced seizures; mice, galnon 2 mg/kg i.p.)	displacement of [125I]-galanin, autoradiographic signal (galanin binding sites)
COC(=O)C1=C[C@@H](O)[C@@H](O)[C@H](O)[C@@H]1Oc1c(Cl)c(C)c(Cl)c2c1C(=O)[C@@]1(O2)C(OC)=CC(=O)C=C1C(=O)OC [Sch 202596]	1400																
Cc1cc(=O)oc2cc(NC(=O)C(CCCCN)NC(=O)C(CC3CCCCC3)NC(=O)OCC3c4ccccc4-c4ccccc43)ccc12 (stereo not drawn) [galnon, 1-[5-amino-1-(4-methyl-2-oxo-2H-chromen-7-ylcarbamoyl)-pentylcarbamoyl]-2-cyclohexyl-ethyl-carbamic acid 9H-fluoren-9-ylmethyl ester] (Fmoc-[Cha]-Lys-{AMC}; configuration not given here)		8	10	attenuated; also recorded: abolished	37 ± 8	13 ± 4	no effect	7	9	attenuated SSSE in a dose dependent manner	28 ± 8	4.8	completely abolished	1.45	comparable to that of galanin	No obvious behavioral side effects	significant increase in binding as compared to controls was only seen at the concentration of 5 μM
dithiipin-1,1,4,4-tetroxide	170																
